# Source: patent US7365231B2, “Compound with antitumor activity and preparation method therefor” (National Taiwan University of Science & Technology, priority 2005, dated 2008)
# Tests used:
# [1] = tested on: human gastric (SC-M1) cancer; details: SC-M1 in SCID mice; cited from earlier work
# human colon cancer cells = details: cited from earlier work
# [2] = xenograft study; cited from earlier work
# colon cancer cell lines = details: NCI Anticancer Drug Screen; cited from earlier work
# [3] = tested on: human colon cancer cells xenografts; details: cited from earlier work
# colon (Colo 205) cancer = details: Colo 205 in SCID mice; cited from earlier work
molecule,measurement,setting,value
"O=C1C=CC(=O)N1C12CC3CC(CC(C3)C1)C2 [AMI, N-1-adamantylmaleimide]",apoptosis and tumor growth,[1],induce apoptosis and inhibit the growth
"1,6-bis(4-(4-amino-3-hydroxyphenoxy)phenyl)diamantane [DPD]",cell cycle arrest and differentiation,human colon cancer cells,induced G0/G1 arrest and differentiation
same,acute toxicity,[2],no obvious acute toxicity
same,anticancer activity on colon cancer cell lines,colon cancer cell lines,marked anticancer activities
same,in vivo anticancer activity,[3],has in vivo anticancer activity
"Nc1ccc(Oc2ccccc2Oc2ccc(N)c(O)c2)cc1O [Example 10, 1,2-Bis(4-amino-3-hydroxyphenoxy)benzene]",melting point,,> 180 °C (dec.)
"Nc1ccc(Oc2ccc(Oc3ccc(N)c(O)c3)cc2)cc1O [Example 8, 1,4-Bis(4-amino-3-hydroxyphenoxy)benzene]",melting point,,> 220 °C (dec.)
dimethyladamantylmaleimide [DMAMI],apoptosis and tumor growth,colon (Colo 205) cancer,induce apoptosis and inhibit the growth
